Literature values in patent US6472362B1, “Detergent compositions in tablet form” (Unilever Home & Personal Care USA division of Conopco, Inc., priority 1997, dated 2002).
Where two headings read alike, the source gives them in different places.

[1] = other common materials, at 200° C. (so in the source)

solubility in water (at 20° C.)	Water Solubility (g/100 g) (highly water-soluble materials, saturated solution in 100 grams of water at 20° C.)	SMILES	Water Solubility (g/100 g) [1]
–	–	O=P(O)(O)OP(=O)(O)OP(=O)(O)O [Sodium tripolyphosphate anhydrous]	15 g/100 g
exceeding 100 gms per 100 ml water	>100 g/100 g	NC(N)=O [Urea]	–
–	–	O=BO[O-].[Na+] [Sodium perborate anhydrous]	3.7 g/100 g
